Source: patent US6528049B2, “Bisexual attractants, aggregants and arrestants for adults and larvae of codling moth and other species of lepidoptera” (Trece, Inc., priority 1999, dated 2003)

Experiments:
male codling moth = assay: Pheromone preference paired-trap test: pheromone alone vs pheromone + HPV; format: in vivo, Cydia pomonella; settings: for % of pheromone-alone capture (line under HPV + Pheromone value) / Male CM Captured, HPV + Pheromone Trap: ± SEM / Male CM Captured, HPV + Pheromone Trap ± SEM / Average % Change in ♂♂ CM Capture: Table 8; for Average % Change in ♂♂ CM Capture: average of four orchards
From the text: Interaction of synthetic apple and pear odor blends, described above in Table 2, and their effect on the attractancy of synthetic pheromone to codling moth was also studied. For that purpose, series of paired-traps containing pheromone alone or pheromone in combination with synthetic host plant volatile blends were placed in walnut orchards.
Interaction of individual synthetic host plant volatiles or blends on the attractiveness of synthetic male pheromone to male codling moth administered in paired traps with pheromone alone or with pheromone and attractant 10 mg/red septum was also studied.
Pheromone traps (sticky wing traps, Trécé, Inc.,) were hung as pairs: a pheromone only baited-trap vs. a pheromone+HPV blend-baited trap. The two traps of a test pair were attached in close competitive proximity (120 cm apart) on a common hanger bar (PVC pipe). The paired-trap bars were hung 5-6 meters high on the outer canopies of trees. A single pair-trap was hung per tree and different replicate test trees were separated by five rows in a matrix through the orchard. Each pheromone trap was baited with ½ of a commercial pheromone-impregnated rubber septum (Trécé, Inc.). Septa were sectioned by a razor blade. The HPV blends evaporated from their own separate impregnated rubber septa containing 10 mg diluted in hexane/septum).
Tests were conducted in a Harley English walnut orchard. Tests spanned the entire two year seasons April-October with traps checked, males sexed, counted and removed every 2-7 days. Significant effect on pheromone trap capture were judged by paired tests either T-test or a nonparametric test.

codling moth = assay: Trap capture with purified (2E,4E) and (2E,4Z) 2,4-decadienoic acid esters; format: in vivo, Cydia pomonella; settings: 1 mg dose/gray septum; four orchards; means of 21 trap checks
Experimental: In this study, test compounds were highly purified synthetic samples. The purities of the compounds are expressed as percentages. Individual traps were baited with 1 mg dose/gray septum; five replicate blocks in four orchards; means of 21 total trap checks.

| Structure (SMILES) | % of pheromone-alone capture (line under HPV + Pheromone value) (male codling moth; Orchard #1) [%] | Male CM Captured, HPV + Pheromone Trap: ± SEM (male codling moth; Orchard #1, 10 mg/red septum) | % of pheromone-alone capture (line under HPV + Pheromone value) (male codling moth; Orchard #2) [%] | Male CM Captured, HPV + Pheromone Trap ± SEM (male codling moth; Orchard #2, 10 mg/red septum) | % of pheromone-alone capture (line under HPV + Pheromone value) (male codling moth; Orchard #3) [%] | Male CM Captured, HPV + Pheromone Trap: ± SEM (male codling moth; Orchard #3, 10 mg/red septum) | % of pheromone-alone capture (line under HPV + Pheromone value) (male codling moth; Orchard #4) [%] | Male CM Captured, HPV + Pheromone Trap: ± SEM (male codling moth; Orchard #4, 10 mg/red septum) | Average % Change in ♂♂ CM Capture (male codling moth) [%] | FEMALE CM Captured: ♂♂/trap/night ± SEM (codling moth) | MALE CM Captured: ♂♂/trap/night ± SEM (codling moth) | Total CM Captured: CM/trap/night ± SEM (codling moth) [CM/trap/night] | also measured |
| --- | --- | --- | --- | --- | --- | --- | --- | --- | --- | --- | --- | --- | --- |
| C=C1CCC2CC1C2(C)C (stereo not drawn) [β-Pinene] | 61 | 0.75 ± 0.50 ♂♂/trap/night | 63 | 1.25 ± 0.29 ♂♂/trap/night | 130 | 3.37 ± 0.53 ♂♂/trap/night | 112 | 4.95 ± 0.76 ♂♂/trap/night | 92 |  |  |  |  |
| CCCCC/C=C\C=C\C(=O)OCCCCCC [Hexyl (2E,4Z)-2,4-Decadienoate (100%), Hexyl (2E,4Z)-2,4-Decadienoate] |  |  |  |  |  |  |  |  |  | 0.02 ♀♀/trap/night | 0.01 ± 0.01 ♂♂/trap/night | 0.02 ± 0.02 |  |
| CCCCC/C=C/C=C/C(=O)OC [Methyl (2E,4E)-2,4-Decadienoate] |  |  |  |  |  |  |  |  |  | 0.04 ± 0.03 ♀♀/trap/night | 0.01 ± 0.01 ♂♂/trap/night | 0.05 ± 0.03 |  |
| Cc1ccc(C(C)C)cc1 [para-Cymene] | 117 | 0.92 ± 0.20 ♂♂/trap/night | 102 | 1.39 ± 0.38 ♂♂/trap/night | 108 | 4.76 ± 0.82 ♂♂/trap/night | 136 | 4.27 ± 0.71 ♂♂/trap/night | 116 |  |  |  |  |
| CCCCC/C=C\C=C\C(=O)OCC [Ethyl (2E,4Z)-2,4-Decadienoate, #2 (88.5%)] |  |  |  |  |  |  |  |  |  |  | 1.89 ± 0.79 ♂♂/trap/night | 4.25 ± 1.43 |  |
| CC1=CCC(C(C)C)=CC1 [gamma-Terpinene] |  |  |  |  |  |  |  |  |  |  |  |  | % Change (Ph+HPV/Phxl00) in Male CM Capture (male codling moth; Table 9): 93%; Impact of HPV Blend on Pheromone Attractancy to Male CM (male codling moth; Table 9): No Effect; Male CM Capture with Pheromone + HPV Blend: ♂♂/trap/night ± SEM (male codling moth; Table 9, 10 mg/red septum): 0.88 ± 0.28 ♂♂/trap/night |
